Tests used:
Format in all cases: cell-based
[1] = system: Caco-2 (colorectal) cells; assay: Anti-proliferative activity, Cell-Titre luminescent viability assay; conditions: Homo sapiens, 72 h exposure, Cell-Titre luminescent reagent
Procedure, shortened: (§1)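 Cells attached 24 h at 37° C., 5% CO2, then treated 72 h with compound at 0.3–100 μM or 0.1–30 μM. Viability read by Cell-Titre luminescence after 30 min reagent exposure, normalized to vehicle; EC50 from variable-slope sigmoidal nonlinear regression.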

PC3 (prostate) cells = assay: as above; conditions: 72 h exposure, Cell-Titre luminescent reagent
Procedure, shortened: as §1

[2] = system: MIA PaCa-2 (pancreatic) cells; assay: as above; conditions: Homo sapiens, 72 h exposure, Cell-Titre luminescent reagent
Procedure, shortened: as §1

A549 (NSCLC) cells = assay: as above; conditions: Homo sapiens, 72 h exposure, Cell-Titre luminescent reagent
Procedure, shortened: as §1

A2780 (ovarian) cells = assay: as above; conditions: Homo sapiens, 72 h exposure, Cell-Titre luminescent reagent
Procedure, shortened: as §1

[3] = system: A2780 ovarian cancer cells; assay: Drug combination screen, 6x6 dose matrix, Bliss-independence synergy; design: key to Max. Synergy, Vinorelbine: Bliss synergy score; 0 = no synergy, negative = antagonism; highest in matrix; key to Total Synergy, Vinorelbine: sum of Bliss synergy scores across the dose matrix; conditions: 72 h (26*: 96-well plate format)
Description: In vitro growth inhibition assays were performed as technical triplicate in two independent experiments and cell viability was assessed by Alamar Blue assay readout. Briefly, cells in logarithmic phase growth were seeded in 384-well plates in a 50 μL/well assay volume. Cells were seeded at 1,200 cells/well using a Multidrop 384 (Thermo Scientific) and allowed to adhere at 37° C. with 5% CO2, in a humidified atmosphere (LiCONIC incubator). After 24 hours incubation, test compounds, positive control (20 μM Thonzonium bromide, 100% kill) and vehicle only (0.4% DMSO) were added into wells of each assay plate using a Tecan HP D300 Digital Dispenser in technical triplicate under minimum light. Following 72 hours drug exposure, metabolic activity was detected by addition of 10% (v/v) Alamar Blue reagent to each assay well using a Multidrop Cambi (Thermo Scientific) and determined by measurement of fluorescence intensity (excitation 555 nm, emission 585 nm) using an EnSpire (Perkin Elmer) plate reader. Readings were performed at 0 hour (background) and after 6 hours alamar blue incubation at 37° C.
The two drugs in each combination matrix were dispensed using a Tecan HP D300 Digital Dispenser. Assays were performed in triplicate for each drug combination (test compound/vinorelbine and test compound/paclitaxel combinations). Synergistic drug interactions were calculated from the averaged cell viability data using the methodology described below.
Synergistic drug interactions were determined for each pa1rw1se drug combination by applying the Bliss-independence model that assumes independence of drug mechanisms. Prior to the analysis, percent cell viability (CV) for combination data were converted to fractional cell growth inhibition (GI) by the formula: […]
The Bliss additivism model was used to calculate a predicted combined response C to two single agents with responses A and B (using GI values), as follows:
The final score for any combination was reported as the difference between the value predicted by the additive model and the experimentally observed value, normalised to 100. Using GI values the maximum possible synergy score is 100, with 0 indicating no synergy and negative indicating possible antagonism. Scores were also reported as a “Max synergy” score, which is the highest individual synergy score for each combination matrix, and a “Total synergy” score, which was obtained by summation of each individual synergy score for the matrix.
The single agent IC50 values for the test compounds and their synergy scores in combination with vinorelbine and paclitaxel are presented in Table 4. The data is listed as IC50 mean from technical triplicates for two independent experiments. The averaged IC50 concentrations for the single agents from both runs were then used to generate the 6×6 dose matrices in the synergy experiment. Synergy scores for each drug combination were calculated by the Bliss-independence model. The maximum synergy and total synergy scores for each combination in A2780 cells are listed.

- IC50 [1]: 6.1 µM
- IC50 (PC3 (prostate) cells): 7.7 µM
- IC50 [2]: 10.1 µM
- IC50 (A549 (NSCLC) cells): 6.8 µM
- IC50 (A2780 (ovarian) cells): 4.9 µM
SMILES: O=C(Nc1ccc(C(F)(F)F)cc1)c1ccn(S(=O)(=O)c2ccc3[nH]ccc3c2)c1 [Compound 26, 1-((1H-indol-5-yl)sulfonyl)-N-(4-(trifluoromethyl)phenyl)-1H-pyrrole-3-carboxamide]
- Max. Synergy, Paclitaxel ([3]; combination with paclitaxel, Bliss score): 7.83
- Total Synergy, Paclitaxel ([3]; combination with paclitaxel, sum of Bliss scores of the matrix): 61.23
- Max. Synergy, Vinorelbine ([3]; combination with vinorelbine, Bliss score): 10.86
- Total Synergy, Vinorelbine ([3]; combination with vinorelbine, sum of Bliss scores of the matrix): 60.91

From patent US12528792B2, “Sulfonamide compounds and the use thereof in the treatment of cancer” (TROBIO THERAPEUTICS PTY LTD, priority 2019, dated 2026)
